Laboratory results from patent publication US20140155415A1, “BENZ[…] BENZODIOXINE COMPOUNDS THAT INTERACT WITH G[…] FOR THE TREATMENT OF DIABETES” (priority 2011, published 2014).
Each block holds one compound with its values, some of them ahead of it.

Tests used:
[1] = target: T1, GK-GKRP (interaction between glucokinase and glucokinase regulatory protein) (Homo sapiens, UniProt Q14397); experiment: GK-GKRP Binding Assay (Binding), AlphaScreen; conditions: avi-tagged GKRP, GK-fluorescein, AlphaScreen beads, 1 μM sorbitol-6-phosphate; read-out: GK-GKRP IC50 (Binding)
T1 construct: made in house; host or cells: GKRP: baculovirus system
T1 sequence (Q14397 1-625): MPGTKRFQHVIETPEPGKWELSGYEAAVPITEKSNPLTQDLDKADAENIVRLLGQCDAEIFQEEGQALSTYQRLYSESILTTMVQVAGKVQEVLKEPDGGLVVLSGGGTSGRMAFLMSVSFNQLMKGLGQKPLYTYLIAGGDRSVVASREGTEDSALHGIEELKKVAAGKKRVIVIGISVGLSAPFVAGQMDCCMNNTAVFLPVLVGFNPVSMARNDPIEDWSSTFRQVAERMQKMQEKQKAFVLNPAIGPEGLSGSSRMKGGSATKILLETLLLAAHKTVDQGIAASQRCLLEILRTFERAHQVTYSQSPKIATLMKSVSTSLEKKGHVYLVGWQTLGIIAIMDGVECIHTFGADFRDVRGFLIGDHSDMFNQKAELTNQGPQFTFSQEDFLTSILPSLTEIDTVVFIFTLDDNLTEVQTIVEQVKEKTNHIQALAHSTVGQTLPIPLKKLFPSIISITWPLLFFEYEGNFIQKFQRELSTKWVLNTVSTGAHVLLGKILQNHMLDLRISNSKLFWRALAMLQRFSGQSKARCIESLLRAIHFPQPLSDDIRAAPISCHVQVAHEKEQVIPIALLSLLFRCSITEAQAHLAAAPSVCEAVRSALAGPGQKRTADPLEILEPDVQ
Method: GK-GKRP Binding Assay Protocol (Binding)
This assay is used to directly measure the interaction between glucokinase (GK) and glucokinase regulatory protein (GKRP). Begin by preparing the following solutions. Assay Buffer: 20 mM Tris, pH 7.5/0.05% BSA/1 mM DTT/1 μM sorbitol-6-phosphate. […] Combine the following reagents in a white 96-well half area plate. Pipette 14 μl of the diluted avi-tagged GKRP into each well. Add 1 μl of compound to be tested and incubate at room temperature for 20 minutes. After 20 minutes, add 5 μl of assay buffer containing 6 nM GK-fluorescein. […] Incubate in a dark room for 2 hours at room temperature. After 2 hours read the plate using an Envision plate reader (Perkin Elmer, Waltham Mass.).
Recombinant human glucokinase (hepatic) was purified and formulated in 50 mM Tris (pH 7.5), 150 mM NaCl and 20 mM glucose previous to labeling with fluorescein. […] Unreacted dye was removed by extensive dialysis into the final formulation buffer: 25 mM Tris (pH 7.2), 150 mM NaCl, 10% glycerol and 2 mM DTT. The human glucokinase regulatory protein construct was designed with a C-terminal avitag and was expressed in a baculovirus system. Purified GKRP was incubated overnight with recombinant biotin ligase in the presence of D-biotin, ATP and MgCl2. GKRP was isolated from reaction components by chromatography on a Superdex 200 size exclusion column into: 50 mM HEPES, 150 mM NaCl and 5 mM DTT. […] Proteins were quantitated according to their calculated molar extinction coefficients at A280 and were stored at −80° C.
(§1) In the Examples, the assays are referred to as “LCMS/MS” or “Binding.”

[2] = target: T2, GK-GKRP (glucokinase / glucokinase regulatory protein) (Homo sapiens, UniProt Q14397); experiment: GKRP LC MS/MS Biochemical Assay (LCMS/MS); conditions: formation of 13C-glucose-6-phosphate from 13C-glucose by LC MS/MS, human His-hepatic GK, fructose-6-phosphate
T2 sequence (Q14397 1-625): T1 sequence (Q14397 1-625)
Method: GKRP LC MS/MS Biochemical Assay (LCMS/MS)
This assay is used to directly measure the formation of ^13C-glucose-6-phosphate from ^13C-glucose by LC MS/MS. Begin by preparing the following solutions: Compound Buffer (CB): 50 mM Tris, pH 7.5/4 mM MgCl2/6% DMSO/fresh 10 mM DTT from 1M frozen stock. Enzyme Buffer (EB): 50 mM Tris, pH 7.5/4 mM MgCl2/6% DMSO/fresh 0.1% BSA/fresh 0.01% Brij-35 (10% BSA and 1% Brij-35 stock). GK (Glucokinase) Working Stock (5×): Dilute human His-hepatic GK to 30 nM in EB buffer. […] Seal the plate and incubate for 30 minutes at room temperature while mixing. After 30 minutes add 10 μl of GK Working Stock (5×). Re-seal the plate and incubate for another 30 minutes at room temperature while mixing. After the second 30 minutes, stop the reaction by the addition of 50 μl of 100% acetonitrile, seal, and mix for 5-10 minutes. Run 10 μl of this sample through the LC MS/MS (API 3200, Applied Biosystems, Carlsbad, Calif.). […]
as §1

Compound: O=S(=O)(N[C@@H](c1cc2ccccc2o1)c1ccccc1Cl)c1ccc2c(c1)OCCCO2 (single isomer, unassigned) [Example 20 Peak #2]
IC50 [1]: 78 nM | EC50 [2]: 30 nM

Compound: C#Cc1ccccc1C(NS(=O)(=O)c1ccc2c(c1)OCCCO2)c1cc2ccccc2o1 (racemic) [Example 8, N-(1-benzofuran-2-yl(2-ethynylphenyl)methyl)-3,4-dihydro-2H-1,5-benzodioxepine-7-sulfonamide]
IC50 [1]: 47 nM | EC50 [2]: 72 nM

Compound: O=S(=O)(NC(c1cc2ccccc2o1)c1ccccc1CO)c1ccc2c(c1)OCCCO2 (racemic) [Example 15, N-(1-benzofuran-2-yl(2-(hydroxymethyl)phenyl)methyl)-3,4-dihydro-2H-1,5-benzodioxepine-7-sulfonamide]
IC50 [1]: 4600 nM | EC50 [2]: 1600 nM

Compound: CCc1ccccc1[C@@H](NS(=O)(=O)c1ccc2c(c1)OCCCO2)c1cc2ccccc2o1 (single isomer, unassigned) [Example 6 Peak #2]
IC50 [1]: 110 nM | EC50 [2]: 40 nM

Compound: C=Cc1ccccc1C(NS(=O)(=O)c1ccc2c(c1)OCCCO2)c1cc2ccccc2s1 (racemic) [Example 38, N-(1-benzothiophen-2-yl(2-ethenylphenyl)methyl)-3,4-dihydro-2H-1,5-benzodioxepine-7-sulfonamide]
IC50 [1]: 25 nM | EC50 [2]: 31 nM

Compound: O=S(=O)(NC(c1ccccc1)c1cc2cccnc2s1)c1ccc2c(c1)OCCCO2 (racemic) [Example 46, N-(phenyl(thieno[2,3-b]pyridin-2-yl)methyl)-3,4-dihydro-2H-1,5-benzodioxepine-7-sulfonamide]
IC50 [1]: 360 nM | EC50 [2]: 220 nM

More lines, in order of falling IC50 [1], values ahead:

IC50 [1]: 3200 nM | EC50 [2]: 740 nM
Compound: O=S(=O)(NC(c1cc2ccccc2o1)c1cccs1)c1ccc2c(c1)OCCCO2 (racemic) [Example 31, N-(1-benzofuran-2-yl(2-thiophenyl)methyl)-3,4-dihydro-2H-1,5-benzodioxepine-7-sulfonamide]

IC50 [1]: 1700 nM | EC50 [2]: 2000 nM
Compound: Cc1ccccc1C(NS(=O)(=O)c1ccc2c(c1)OCCCO2)c1oc2ccccc2c1C (racemic) [Example 45, N-((3-methyl-1-benzofuran-2-yl)(2-methylphenyl)methyl)-3,4-dihydro-2H-1,5-benzodioxepine-7-sulfonamide]

IC50 [1]: 1100 nM | EC50 [2]: 280 nM
Compound: CC(C)c1ccccc1C(NS(=O)(=O)c1ccc2c(c1)OCCCO2)c1cc2ccccc2o1 (racemic) [Example 9, N-(1-benzofuran-2-yl(2-(1-methylethyl)phenyl)methyl)-3,4-dihydro-2H-1,5-benzodioxepine-7-sulfonamide]

IC50 [1]: 860 nM | EC50 [2]: 240 nM
Compound: O=S(=O)(NC(c1ccccc1)c1ccc2ccccc2c1)c1ccc2c(c1)OCCCO2 (racemic) [Example 55, N-(2-naphthalenyl(phenyl)methyl)-3,4-dihydro-2H-1,5-benzo dioxepine-7-sulfonamide]

IC50 [1]: 290 nM | EC50 [2]: 150 nM
Compound: Cc1ccccc1C(NS(=O)(=O)c1ccc2c(c1)OCCCO2)c1cc2ccccc2s1 (racemic) [Example 36, N-(1-benzothiophen-2-yl(2-methylphenyl)methyl)-3,4-dihydro-2H-1,5-benzodioxepine-7-sulfonamide]

IC50 [1]: 93 nM | EC50 [2]: 150 nM
Compound: COc1cccnc1C(NS(=O)(=O)c1ccc2c(c1)OCCCO2)c1cc2cccnc2s1 (racemic) [Example 49, N-((3-methoxy-2-pyridinyl)(thieno[2,3-b]pyridin-2-yl)methyl)-3,4-dihydro-2H-1,5-benzodioxepine-7-sulfonamide]

IC50 [1]: 7 nM | EC50 [2]: 17 nM
Compound: C[C@@](O)(c1ccnc(-c2cccc3cc([C@H](NS(=O)(=O)c4ccc5c(c4)OCCCO5)c4ccccc4)sc23)c1)C(F)(F)F (single isomer, unassigned) [Example 70 Peak #1]

IC50 [1]: 6 nM | EC50 [2]: 22 nM
Compound: C[C@](O)(c1ccnc(-c2cccc3cc([C@H](NS(=O)(=O)c4ccc5c(c4)OCCCO5)c4ccccc4)sc23)c1)C(F)(F)F (single isomer, unassigned) [Example 70 Peak #2]
